From patent US6087493A, “Porphyrin compounds as telomerase inhibitors” (Regents of the University of Texas System, priority 1998, dated 2000)
Read-outs that look alike come from different tables or passages of the source.

Experiments:
human telomerase = human telomerase (Homo sapiens, UniProt O14746); test: Telomerase inhibition, primer extension assay in HeLa cell extract; type: biochemical
MCF-7 = test: Cytotoxicity (MTT) MCF-7; type: cell-based, human; conditions: Homo sapiens, MCF7; MCF-7 (breast), 4-7 days; read-out: IC 50 cytotoxicity
Description: (§1) The cells were cultured in the presence of the porphyrins incubator for 4-7 days and then treated with 3-(4,5-dimethylthiazol-2-yl)-2,5-diphenyl-tetrazolium bromide (MTT). Formazan concentration was quantitated by absorbance at 570 nm.

BT-20 = test: Cytotoxicity (MTT) BT-20; type: cell-based, human; conditions: Homo sapiens; BT-20 (breast), 4-7 days; read-out: IC 50 cytotoxicity
Description: as §1

PC3 = test: Cytotoxicity (MTT) PC3; type: cell-based, human; conditions: Homo sapiens, PC-3; PC3 (prostate), 4-7 days; read-out: IC 50 cytotoxicity
Description: as §1

DU145 = test: Cytotoxicity (MTT) DU145; type: cell-based, human; conditions: Homo sapiens, DU-145; DU145 (prostate), 4-7 days; read-out: IC 50 cytotoxicity
Description: as §1

[1] = Cytotoxicity (MTT) NHLF normal lung fibroblasts; type: cell-based; conditions: human, nhlf cells; NHLF (normal), 4-7 days; read-out: IC 50 cytotoxicity
Description: as §1
All porphyrins were obtained from Midcentury, Posen, Ill. The experimental work with porphyrins was performed under minimum exposure to light. All human tumor cell lines and normal human breast cells Hs578Bst were purchased from the American Type Culture Collection. Normal human lung fibroblasts NHLF were obtained from Clonetics Corporation. The cell lines were grown according to the suppliers' instructions.

in vitro = type: cell-based; conditions: human, hs578bst cells; HS578 Bst, Thy (n = 3 ± SEM); read-out: Cytotoxicity
Description: Cytotoxicity of the compounds to human breast cancer cells in vitro was assessed using a panel of cell lines representing estrogen receptor-positive (BT20, MCF-7m), and a pair of estrogen receptor-negative, transformed breast (11S578t) and normal breast (HS578Bst) cells.
Thy: tritiated […] assay (n = 3 ± SEM)

MCF7 cells = test: Nuclear localization of TMPyP4 in MCF7 cells; type: cell-based, human
Description: MCF7 cells were seeded at 5×10^5 cells per flask and cultured in the presence of 0, 50, or 100 μM TMPyP4 for 7 days with one exchange of medium. The cells were harvested with trypsin-EDTA, washed with PBS and counted using a Coulter counter. The cells were then pelleted by centrifugation at 700 g and lysed in a hypotonic solution (0.1×PBS);the resulting lysate was sedimented at 700 g for 10 min. The supernatant was removed and the pellet was dissolved in 0.5 ml of 2% SDS. Absorbance of the supernatants and pellet was measured at 423 nm. TMPyP4 diluted in 2% SDS containing 1 mg/ml salmon sperm DNA was used for the standard curve.
Several reports indicate that porphyrins localize specifically in tumor tissue, although sites of subcellular localization may vary widely with porphyrin structure and net charge (De Paolis et al., 1985). […] To gain insight into the subcellular distribution of cationic porphyrins, the inventors have cultured MCF7 cells with 0, 50, or 100 μM TMPyP4 for 7 days.

[2] = test system: DNA quadruplex in single-stranded template with four telomeric repeats; test: DNA synthesis arrest assay (Taq DNA polymerase); type: biochemical
Description: This assay was a modification of that described by Weitzmann et al. (Wang and Patel, 1993). Briefly, primers (24 nM) labeled with [γ-^32 P] ATP were mixed with template DNA PQ74 (12 nM) in a Tris-HCl buffer (10 mM Tris, pH 8.0) containing 10 mM MgCl2 and heated at 90° C. for 4 min. After cooling at room temperature for 15 min, spermidine (to give 100 μM) and TMPyP4 (to give the concentrations indicated in the figure) were added. The primer extension reactions were initiated by adding dNTP (final concentration 100 μM) and Taq DNA polymerase (2.5 U/reaction, Boehringer Mannheim). The reactions were incubated at 55 C. (or otherwise as indicated) for 15 min, then stopped by adding an equal volume of stop buffer (95% formamide, 10 mM EDTA, 10 mM NaOH, 0.1% xylene cyanol, 0.1% bromophenol blue). The products were separated on a 12% polyacrylamide sequencing gel.
A single-stranded DNA template, which included four telomeric repeats, was taken, and an 18-base primer complementary to the […] was extended using Taq DNA polymerase.

HeLa cells = test: Chromosome fusion in HeLa cells; type: cell-based, human; conditions: 3 μM, 2-4 days
[3] = test system: single-stranded sequence bearing four human telomeric repeats
Description: The DNA was labeled with 32p at the 5'-end and stored in buffer (10 mM Tris-HCl, 1 mM EDTA, pH 8.0) at 3000 cpm/μl. For each photocleavage reaction, 10 μl of DNA (~5 ng) was mixed with 10 μl of 200 mM KCl, boiled for 10 min, and cooled to room temperature. For the control studies, 10 μl of distilled water was added instead of the KCl solution. The mixtures were transferred to a 96 well plate, 2 μl of 1 μM aqueous TMPyP4 solution added, and the samples exposed to a 24 W fluorescent day-light under a glass filter for various periods of time. The reactions were stopped with 100 μl of calf thymus DNA (0.1 μg/μl), and after phenol-chloroform extraction, the samples were subjected to strand breakage treatment and ethanol precipitation (Han and Hurley, 1996).
A single-stranded sequence bearing four human telomeric repeats was treated with TMPyP4 and then exposed to light.

[4] = test system: cultured human dermal fibroblasts; conditions: Georgiou et al., 1994, cited from earlier work
[5] = mice; cited from earlier work

human telomerase, sequence (O14746 whole entry): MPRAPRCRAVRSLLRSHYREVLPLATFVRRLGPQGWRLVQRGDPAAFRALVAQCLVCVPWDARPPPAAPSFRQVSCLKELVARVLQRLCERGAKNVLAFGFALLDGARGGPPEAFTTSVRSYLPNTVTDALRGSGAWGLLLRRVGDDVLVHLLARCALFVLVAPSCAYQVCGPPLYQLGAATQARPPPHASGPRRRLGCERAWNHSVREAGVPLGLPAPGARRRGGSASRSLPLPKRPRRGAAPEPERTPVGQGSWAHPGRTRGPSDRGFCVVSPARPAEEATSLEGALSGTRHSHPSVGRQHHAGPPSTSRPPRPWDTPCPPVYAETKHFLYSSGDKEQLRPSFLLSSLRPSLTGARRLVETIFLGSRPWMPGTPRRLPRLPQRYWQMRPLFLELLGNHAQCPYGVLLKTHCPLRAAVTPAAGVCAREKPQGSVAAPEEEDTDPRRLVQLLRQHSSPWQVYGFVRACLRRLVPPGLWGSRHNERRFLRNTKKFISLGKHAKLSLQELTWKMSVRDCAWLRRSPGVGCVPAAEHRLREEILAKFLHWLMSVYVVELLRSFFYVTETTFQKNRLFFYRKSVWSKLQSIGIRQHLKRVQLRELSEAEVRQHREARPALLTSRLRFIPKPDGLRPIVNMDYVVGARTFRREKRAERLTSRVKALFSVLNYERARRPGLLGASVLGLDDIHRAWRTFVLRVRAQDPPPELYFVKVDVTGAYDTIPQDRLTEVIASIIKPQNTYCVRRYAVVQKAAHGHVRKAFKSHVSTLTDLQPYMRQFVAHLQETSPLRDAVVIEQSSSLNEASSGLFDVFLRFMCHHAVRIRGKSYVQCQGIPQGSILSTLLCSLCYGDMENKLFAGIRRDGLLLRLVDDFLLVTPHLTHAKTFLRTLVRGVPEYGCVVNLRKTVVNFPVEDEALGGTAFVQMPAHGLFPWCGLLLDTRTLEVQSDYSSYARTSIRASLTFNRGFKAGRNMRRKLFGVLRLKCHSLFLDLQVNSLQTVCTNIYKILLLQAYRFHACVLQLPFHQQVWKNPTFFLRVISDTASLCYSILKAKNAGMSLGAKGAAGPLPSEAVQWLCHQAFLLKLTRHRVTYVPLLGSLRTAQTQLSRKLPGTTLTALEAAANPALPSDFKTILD

C[n+]1ccc(-c2c3nc(c(-c4cc[n+](C)cc4)c4ccc([nH]4)c(-c4cc[n+](C)cc4)c4nc(c(-c5cc[n+](C)cc5)c5ccc2[nH]5)C=C4)C=C3)cc1 [TMPyP4, 5,10,15,20-tetra-(N-methyl-4-pyridyl)porphine]
% Inhibition of telomerase (human telomerase; 25 µM): 60%
IC50 (human telomerase; IC50 telomerase): 6.5 ± 1.4 µM
IC50 (human telomerase; IC50 telomerase (text)): 6.5 ± 1.4 µM
IC50 (human telomerase; Telomerase Inhibition): 15 µM
inhibition at 25 µM (human telomerase; read-out: amount of inhibition of telomerase): 72%
IC50 (MCF-7): 49.6 µM
IC50 (BT-20): 106 µM
IC50 (PC3): 184 µM
IC50 (DU145): 93.6 µM
CC50 [1]: 13.5 µM
CC50 (in vitro): > 100 µM
cytoplasm as % of nuclear fraction concentration (MCF7 cells; 50 μM TMPyP4, 7 days): 3.3%
porphyrin concentration in the nuclear pellet (MCF7 cells; 50 μM TMPyP4, 7 days): 1.39 nmoles/10^6 cells
porphyrin in cytoplasm (MCF7 cells; 50 μM TMPyP4, 7 days): 47.3 pmoles/10^6 cells
cytoplasm as % of nuclear pellet concentration (MCF7 cells; 100 μM TMPyP4, 7 days): 5.5%
porphyrin concentration in the nuclear fraction (MCF7 cells; 100 μM TMPyP4, 7 days): 7.81 nmoles/10^6 cells
porphyrin in cytoplasmic fraction (MCF7 cells; 100 μM TMPyP4, 7 days): 434 pmoles/10^6 cells
calculated concentration in the nucleus (MCF7 cells; assuming nucleus 1/100 of cell volume): 1.4 to 78 mM
calculated concentration in the cytoplasm (MCF7 cells; assuming volume of 10^6 cells 10-100 μl): 0.47 to 434 µM
melting temperature of the quadruplex [2]: increased the melting temperature of the quadruplex
pause site band intensity ([2]; Tris buffer without K+ or Na+): more intense in a concentration-dependent manner
persistence of bands at the pause site ([2]; temperature dependence): up to 65 °C
fused chromosomes (HeLa cells): number of fused chromosomes was increased in comparison with the untreated controls
photocleavage selectivity [3]: clear selectivity for cleavage at the 5'-ApG-3' step at G1 and G7, and 5'-GpT-3' step at G6 and G12
uptake / nuclear accumulation [4]: rapidly accumulate (within min) in the nuclei of cultured human dermal fibroblasts
uptake / nuclear accumulation ([4]; listed as tetra(N-methyl-4-pyridyl)porphyrin): taken up by cells and localized in organelles known to contain DNA
accumulation in tumor tissue [5]: accumulation in tumor tissue in mice
